# From US20170283408A1, “BENZO-HETEROCYCLIC COMPOUNDS AND THEIR APPLICATIONS” (priority 2014, published 2017)
# Tests used:
# PD-L1 [1] = assay: PD-L1 level in LPS-primed monocyte model (flow cytometry); format: cell-based, human; conditions: for expression level of PD-L1 in LPS-primed monocytes, of that of the control: compound at 10 μM, LPS 100 ng/mL, relative to control
# Source text: (§1) White blood cells of test subjects including healthy volunteers recruited from the Taiwan Blood Service Foundation (Taipei, Taiwan) and septic patients were obtained with written informed consents. Human monocytes were then isolated in accordance with procedures described previously (Chen I H et al., Cancer Immunol Immunother (2010) 59, 323-334). Briefly, peripheral blood mononuclear cells (PBMCs) were isolated using Ficoll-Paque Plus (GE Healthcare) gradient centrifugation. The monocytes were further purified by conducting CD14 selection using CD14 MACS microbeads (Miltenyi Biotec). The purity of monocytes confirmed using flow cytometry analysis was approximately 90%. Monocytes were incubated with endotoxin LPS (100 ng/ml) for 72 hours. At the indicated time point, the cells were harvested and the PD-L1 and HLA-DR molecules were analyzed using flow cytometry. Murine B16F10 cell lines maintained in Dulbecco's modified Eagle's medium (DMEM), 10% heat-inactivated fetal calf serum, 2 mM L-glutamine, penicillin (100 U/ml), and streptomycin (100 μg/ml) at 37 C in a 5% CO2 humidified atmosphere.
# (§2) To analyze the surface phenotype of the monocytes, the cells were incubated for 30 minutes on ice in the dark with the following mAbs diluted in phosphate-buffered saline (PBS) containing 1% BSA: PD-L1-FITC, HLA-DR-PE, CD14-PerCP (BD Biosciences). Monocytes were gated based on their FSC/SSC properties. Fluorescence was detected using FACS Calibur, and data analysis was performed using FCS Express version 3 (De Novo Software).
# In this example, an LPS-primed monocyte model was established and then used to evaluate the function of the compound of example 1. Specifically, monocytes isolated from healthy subjects according to procedures described in the “Materials and methods” section were incubated with LPS (100 ng/mL) for 72 hours, then respective levels of PD-L1 and HLA-DR were determined. Results are illustrated in FIG. 2.
# The effects of the compounds of example 1 were tested in the LPS-primed monocyte model of example 3.1, in which various concentrations of ML-C19-A, ML-C19-B, ML-A1-B, and ML-A1-C were incubated with LPS-primed monocytes of example 3.1; results are illustrated in FIGS. 3 and 4.
# HLA-DR = HLA-DR level in LPS-primed monocyte model (flow cytometry); format: cell-based, human; conditions: LPS-primed monocytes; FIG. 3
# Source text: as §1, §2
# In this example, an LPS-primed monocyte model was established and then used to evaluate the function of the compound of example 1. Specifically, monocytes isolated from healthy subjects according to procedures described in the “Materials and methods” section were incubated with LPS (100 ng/mL) for 72 hours, then respective levels of PD-L1 and HLA-DR were determined. Results are illustrated in FIG. 2. […]
# PD-L1 [2] = assay: PD-L1 expression on IFN-γ stimulated B16F10 cells (flow cytometry); format: cell-based, murine; conditions: various concentrations, 1 day; FIG. 5
# Protocol: as §1, with “IFN-γ stimulated-monocytes were incubated in the presence of either a DMSO vehicle control, ML-A1-B or ML-A1-C for 1 day. Treated cells were harvested and the PD-L1 molecules were analyzed using flow cytometry. Surface molecule expression is presented as the MFI relative to each day that the cells were treated with the DMSO vehicle control medium. Values are presented as the mean±SEM from 3 independent experiments. White” for “White”, “Murine B16F10 cell lines maintained in Dulbecco's modified Eagle's medium (DMEM), 10% heat-inactivated fetal calf serum, 2 mM L-glutamine, penicillin (100 U/ml), and streptomycin (100 μg/ml) at 37 C in a 5% CO2 humidified atmosphere.” left out
# B16F10 lung metastases [3] = assay: B16F10 lung metastasis model in C57BL/6 mice; format: in vivo; conditions: 2 mg/kg ip daily, day 14, n=11/group
# Protocol: (§3) C57BL/6 (n=11/group) mice were injected i.v. with 2×10^5 of the B16F10 tumor cells. Two mg/kg of ML-A1-B, ML-A1-C, or with DMSO vehicle control were used. The animals were killed on day 14 and tumor nodules in the lungs were counted. Data are presented as the number of each individual mouse and the mean of each group. Representative photographs of the lung of each group are also shown (left).
# (§4) C57BL/6 mice (6 to 8 weeks old) and NOD/SCID mice (6 to 8 weeks old) were purchased from the National Laboratory Animal Center (Taipei, Taiwan). All animal experiments were performed under specific pathogen-free conditions and in accordance with guidelines approved by the Animal Care and Usage Committee of Mackay memorial hospital (Taipei, Taiwan).
# (§5) To generate lung metastases, mice were injected intravenously with 2×10^5 B16F10 cells, a dose consistently yielding lung metastases in 100% of animals. 2 mg/kg compounds and 5% DMSO vehicle control were given ip daily to test the effect of compounds on tumor metastatsis. The amount of tumor seeding was counted as total numbers of black nodules presented in the lungs under microscopy.
# To examine the therapeutic effect of ML-A1-B and ML-A1-C against pre-established B16F10 lung metastases, mice were iv injected with 2×10^5 B16F10 tumor cells and treated with, per mouse, 2 mg/kg of ML-A1-B, ML-A1-C, or with DMSO vehicle control.
# B16F10 lung metastases [4] = assay: B16F10 lung metastasis model in NOD/SCID mice; format: in vivo; conditions: 2 mg/kg, day 14, n=5/group
# Protocol: as §3, with “NOD/SCID (n=5/group)” for “C57BL/6 (n=11/group)”
# as §4
# as §5, with “microscopy. […]” for “microscopy.”
# [5] = In vivo toxic study (body weight); conditions: 20 mg/kg ip daily; C57BL/6
# Protocol: C57BL/6 mice were ip injected daily with 20 mg/kg of ML-A1-B, or ML-A1-C, or 5% DMSO vehicle control, and their body weight were measured on the indicated days.
# To investigate toxicity of ML-A1-B and ML-A1-C, mice were injected ip daily with 20 mg/kg of ML-A1-B or ML-A1-C or 5% DMSO vehicle control.
# [6] = system: murine B16F10 melanoma cells; assay: MTS cytotoxicity assay, B16F10; format: cell-based; conditions: Mus musculus, B16-F10, B16F10; FIG. 6; read-out: IC50 (MTS assay), B16F10 melanoma cell line
# Protocol: (§6) The B16F10 and human PBMCs were incubated in the presence of various concentrations of ML-A1-B and ML-A1-C compounds for 1 day. The cell cytotoxicity was monitored through MTS assay. Optical density of DMSO control groups was taken as 100% of cell viability. Values are presented as the mean±SEM from 3 independent experiments.
# (§7) 5×10^3 of B16F10 cells were seeded into 96-well plates and treated with the following: DMSO control, various concentrations of naphthalimide derived compounds for 2 day. For the MTS assay (Promega), 40 ul of the MTS reagent was added into each well. Cells were incubated at 37° C. for 4 hr. The absorbance was detected at OD490 nm.
# (§8) The cytotoxicity of various concentrations of ML-A1-B and ML-A1-C against murine B16F10 melanoma cells and human PBMCs were examined by MTS assay. […] Therapeutic index by MTS assay is about 5.62.
# human PBMCs = assay: MTS cytotoxicity assay, human PBMCs; format: cell-based
# Protocol: as §6, §7, §8
# B16F10 lung metastases [7] = assay: Compounds and anti-PD-1 antibody combination therapy in B16F10 lung metastasis model (survival); format: in vivo, C57BL/6 mice; conditions: compound 2 mg/kg daily combined with anti-PD-1 (J43) 5 mg/kg every 3-4 days; C57BL/6
# Protocol: C57BL/6 mice were injected iv with 2×10^5 B16F10 cells on Day0. On Day1, mice were injected ip with either control hamster Ig (CTRL IgG) or hamster anti-mouse-PD-1 (J43) at 5 mg/kg every 3-4 days. For combination therapies, mice were daily injected with 2 mg/kg of ML-C19-A or ML-A1-C combined with anti-mouse PD-1 (5 mg/kg) every 3-4 days. Long-term of survival of treated mice in each of the experimental groups were observed.
# To examine whether combination of ML-C19-A or ML-A1-C with anti-PD-1 antibody would prolong mice survival in B16F10 lung metastasis model, mice were injected ip with compounds and anti-PD-1 antibody.
SMILES,"expression level of PD-L1 in LPS-primed monocytes, of that of the control (PD-L1 [1])",levels of HLA-DR expression (HLA-DR),PD-L1 on IFN-γ stimulated murine B16F10 melanoma cell line (PD-L1 [2]),"number of lung metastases (lung nodules), mean (B16F10 lung metastases [3])","number of lung metastases (lung nodules), range (B16F10 lung metastases [3])",lung metastasis in immune deficient NOD/SCID mice (B16F10 lung metastases [4]),body weight of the mice [5],visible sign of toxicity [5],IC50 [6] [µM],"IC50 (human PBMCs; Homo sapiens, PBMC, human PBMCs, FIG. 6) [µM]",Therapeutic index by MTS assay (human PBMCs; ratio of PBMC IC50 to B16F10 IC50),overall survival (B16F10 lung metastases [7]),"reduction in PD-L1 level as compared with that of the control (PD-L1 [1]; LPS-primed monocytes, FIG. 3) [%]"
"CN(C)CCN1C(=O)c2cccc3c(-c4nc5ccccc5o4)ccc(c23)C1=O [ML-A1-B, 6-(Benzo[d]oxazol-2-yl)-2-(2-(dimethylamino)ethyl)-1H-benzo[de]isoquinoline-1,3(2H)-dione]",~9.4%,capable of altering the levels of HLA-DR expression,significantly suppresses PD-L1,41,2-90,failed to inhibit lung metastasis,do not significantly reduce the body weight,no visible sign of toxicity,,,,,
"CN(C)CCN1C(=O)c2cccc3c(-c4nc5ccccc5s4)ccc(c23)C1=O [ML-A1-C, 6-(Benzo[d]thiazol-2-yl)-2-(2-(dimethylamino)ethyl)-1H-benzo[de]isoquinoline-1,3(2H)-dione]",~50.8%,capable of altering the levels of HLA-DR expression,significantly suppresses PD-L1,30,3-59,failed to inhibit lung metastasis,do not significantly reduce the body weight,no visible sign of toxicity,7.8 ± 0.05,48.3 ± 0.14,about 5.62,an increase in overall survival,
NS(=O)(=O)c1ccc(N2C(=O)c3cccc4cccc(c34)C2=O)cc1 [ML-C19-A],about 37.5%,,,,,,,,,,,an increase in overall survival,
"NS(=O)(=O)c1ccc(N2C(=O)c3cccc4c(Br)ccc(c34)C2=O)cc1 [ML-C19-B, 4-(6-bromo-1,3-dioxo-1H-benzo[de]isoquinolin-2(3H)-yl)benzene-sulfonamide]",,capable of altering the levels of HLA-DR expression,,,,,,,,,,,20
